Where “and” joins values, the source holds several entries; their conditions need not be identical. Equal values may be shown once. Entries after “also recorded” stand apart in the source; their conditions may differ. Blank lines part the entries; values can stand above or below the molecule they belong to. Where a SMILES comes first, the peptide text is derived from it. Bridges are numbered along the chain shown (N, C = ends). [ ]: non-standard residue; d: D form. hArg = N=C(N)NCCCC[C@H](N)C(=O)O; Mpa = O=C(O)CCS
Experiments:
[1] = tested on: washed platelets; assay: Light transmission aggregometry of washed platelets stimulated with serum from patients with VITT; assay type: cell-based, human
Method: Washed platelets were prepared from citrated whole blood as described in Nicolson et al., Low-dose BTK inhibitors selectively block platelet activation by CLEC-2, Haematologica 106(1):208-19 (2021). Briefly; citrated blood was taken from healthy, drug-free volunteers and mixed (1:10, v/v) with acid citrate dextrose and centrifuged (200×g, 20 minutes, RT) to produce platelet rich plasma. Platelet rich plasma was then centrifuged (1000×g, 10 minutes, RT) in the presence of 0.2 μg/mL prostacyclin. The platelet pellet was resuspended in modified-Tyrode's-HEPES buffer, prepared as described in Nicolson et al., acid citrate dextrose and 0.2 μg/mL prostacyclin and centrifuged (1000×g, 10 minutes, RT). Platelet pellet was resuspended in modified-Tyrode's-HEPES buffer to a concentration of 2×10^8/mL and allowed to rest for 30 minutes prior to use.
Aggregation was measured in washed platelets (2×10^8/mL) under stirring conditions (1200 rpm) at 37° C. using a light transmission aggregometer (Model 700, ChronoLog) for 20 minutes following stimulation with serum (1:15, v/v). Washed platelets were pre-incubated with IV.3 F(ab) for 5 minutes or with inhibitors for 10 minutes prior to stimulation with serum. Modified-Tyrode's-HEPES buffer or dimethyl sulfoxide (DMSO) was used as vehicle.

[2] = biological target: BTK enzyme (Homo sapiens, UniProt Q06187); conditions: healthy volunteers; doses which provide 100% occupancy of the BTK enzyme; cited from earlier work
[3] = tested on: platelets via FcγRIIA; conditions: both low and high concentrations of heparin; cited from earlier work
[4] = human, in vivo; cited from earlier work
[5] = tested on: platelets; assay: Heparin Induced Platelet Activation (HIPA) assay (HITAlert kit); assay type: cell-based, human
Text: See, e.g., Greinacher et al., Thrombotic thrombocytopenia after ChAdOx1 nCov-19 vaccination, N Engl J Med, doi:10.1056/NEJMoa2104840 (2021); Schlutz et al., Thrombosis and thrombocytopenia after ChAdox1 nCoV-19 vaccination, N Engl J Med, doi:10.1056/NEJMoa2104882 (2021). Cross-sectional brain imaging verified the presence of cerebral venous sinus thrombosis (CVST) and intracerebral haemorrhage in three patients, and ischemic stroke caused by internal carotid artery thrombus in one patient.

[6] = Phase 2 trial; cited from earlier work
[7] = in comparison to first and second generation BTKi; cited from earlier work
[8] = Bleeding in thrombocytopenic patients; assay type: in vivo, human
[9] = tested on: 251-kinase panel; assay: 251-kinase panel selectivity; assay type: biochemical; conditions: 1 μM
[10] = tested on: platelets; assay: Normal platelet function in vitro; assay type: cell-based
[11] = tested on: washed platelets; assay: Light transmission aggregometry, aggregation to collagen; assay type: cell-based, human; conditions: 3 μg/mL collagen; results not shown
Method: […] Modified-Tyrode's-HEPES buffer or dimethyl sulfoxide (DMSO) was used as vehicle.
We tested if the Btk inhibitor rilzabrutinib (rilzabrutinib powder prepared in DMSO (final 0.02% DMSO) to achieve a concentration of 0.5 μM) could prevent platelet aggregation in patient sera.

[12] = Pharmacokinetics in humans after oral administration; assay type: in vivo, human
[13] = HITAlert at presentation, serum of the individual VITT patient, normal range ≤ 8%

BTK enzyme, sequence (Q06187 whole entry): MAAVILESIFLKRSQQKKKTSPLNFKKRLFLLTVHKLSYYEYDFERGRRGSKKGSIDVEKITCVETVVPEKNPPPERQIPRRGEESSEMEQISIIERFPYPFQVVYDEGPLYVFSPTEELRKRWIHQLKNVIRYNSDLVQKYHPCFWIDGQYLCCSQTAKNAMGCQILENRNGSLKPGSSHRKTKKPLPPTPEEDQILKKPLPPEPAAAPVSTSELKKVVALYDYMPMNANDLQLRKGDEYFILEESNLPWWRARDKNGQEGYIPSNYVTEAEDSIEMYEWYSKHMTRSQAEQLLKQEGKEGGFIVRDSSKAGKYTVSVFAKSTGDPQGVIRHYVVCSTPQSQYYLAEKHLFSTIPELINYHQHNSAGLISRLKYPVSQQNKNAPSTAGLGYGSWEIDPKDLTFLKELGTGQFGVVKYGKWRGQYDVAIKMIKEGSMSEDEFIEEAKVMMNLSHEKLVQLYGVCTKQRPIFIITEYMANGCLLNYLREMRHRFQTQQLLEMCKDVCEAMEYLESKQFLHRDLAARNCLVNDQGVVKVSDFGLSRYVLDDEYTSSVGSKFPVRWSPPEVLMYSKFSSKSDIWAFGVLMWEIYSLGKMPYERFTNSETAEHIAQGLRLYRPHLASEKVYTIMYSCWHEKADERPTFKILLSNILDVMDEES

Molecule: N=C(N)NCCCC[C@@H]1NC(=O)CCSSC[C@@H](C(N)=O)NC(=O)[C@@H]2CCCN2C(=O)[C@H](Cc2c[nH]c3ccccc23)NC(=O)[C@H](CC(=O)O)NC(=O)CNC1=O [eptifibatide] ([Mpa][hArg]GDWPC-NH2; disulfide 1-7)
- response (aggregation) to patient sera ([1]; eptifibatide 9 μM, data not shown): inhibited

Molecule: N=C(N)c1ccc2cc(OC(=O)c3ccc(N=C(N)N)cc3)ccc2c1 [FUT-175]
- effect on aggregation to patient sera (complement inhibitors) ([1]; data not shown): minor effects

Molecule: C=CC(=O)Nc1cccc(Nc2nc(Nc3ccc(OCCOC)cc3)ncc2F)c1 [CC-292, spebrutinib]
- tolerability [2]: well tolerated

Molecule: heparin
- platelet activation by immune complexes [3]: blocked
- deleterious effect in 1 patient with VITT [4]: without deleterious effect
- Platelet activation with serum and excess heparin [5, 13]: 0.64% and 3.68% and 1.43% and 4.38%
- Platelet activation with serum and heparin [5, 13]: 18.53% and 18% and 36.5% and 22.63%
- platelet activation by patient sera, high concentration of heparin ([5]; sera of four patients tested): blocked
- platelet activation by patient sera, low concentration of heparin ([5]; sera of four patients tested): reduced
- aggregation to VITT patient sera, high heparin ([1]; high heparin concentration (100 U/mL)): blocked aggregation
- aggregation to VITT patient sera, low heparin ([1]; low (0.2 U/mL) concentration of heparin, 7 patients): prevented (5 of 7 patients) or delayed (2 of 7 patients)

Molecule: C=CC(=O)N1CCC(CNc2ncnc(N)c2-c2ccc(Oc3ccccc3)cc2)CC1 [evobrutinib]
- efficacy for multiple sclerosis [6]: demonstrated efficacy

- association with bleeding [8]: has not been associated with bleeding
- number of kinases with >90% inhibition [9]: 6 kinases
- impact on normal platelet function [10]: no impact
- absorption [12]: rapidly absorbed
- half-life ([12]; human, in vivo): 180 to 240 min
Molecule: CC(C)(C=C(C#N)C(=O)N1CCC[C@@H](n2nc(-c3ccc(Oc4ccccc4)cc3F)c3c(N)ncnc32)C1)N1CCN(C2COC2)CC1 [Compound (I), (R)-2-[3-[4-amino-3-(2-fluoro-4-phenoxy-phenyl)pyrazolo[3,4-d]pyrimidin-1-yl]piperidine-1-carbonyl]-4-methyl-4-[4-(oxetan-3-yl)piperazin-1-yl]pent-2-enenitrile]
- cross-reactivity with other molecules [7]: minimal cross-reactivity
- aggregation to collagen [11]: fully inhibited
- platelet aggregation induced by serum from patients with VITT ([1]; rilzabrutinib 0.5 μM, 10 minutes pre-incubation, washed platelets 2×10^8/mL, serum 1:15 v/v, n=7): prevented platelet aggregation; also recorded: blocks platelet aggregation

Molecule: CC[C@H](C)[C@H](N)C(=O)N[C@H]1CSSC[C@@H](C(=O)N[C@H](C(N)=O)[C@@H](C)O)NC(=O)[C@H](CCCN=C(N)N)NC(=O)[C@H](Cc2cnc[nH]2)NC(=O)[C@H](Cc2cnc[nH]2)NC(=O)CNC(=O)[C@H](Cc2c[nH]c3ccccc23)NC(=O)[C@H](CC(=O)O)NC(=O)[C@H](CCC(N)=O)NC(=O)[C@H](C(C)C)NC(=O)[C@H](C(C)C)NC1=O [compstatin]
- effect on aggregation to patient sera (complement inhibitors) ([1]; data not shown): minor effects

B1: PF4: platelet factor 4 (protein, UniProt P02776 32-101, looked up)
Platelet factor 4: EAEEDGDLQCLCVKTTSQVRPRHITSLEVIKAGPHCPTAQLIATLKNGRKICLDLQAPLYKKIIKKLLES
- enhancement of partial aggregation to patient 2 serum ([1]; 10 μg/mL PF4, data not shown): No enhancement
